For 24 molecules, TGI and GI50 results are on record in PubChem BioAssay (NCI).

Among the test systems are 786-0 renal; DU-145 prostate; KM12 colon; MDA-MB-231 breast; MDA-MB-435; SK-OV-3 ovarian; NCI-H522 lung; DMS 114 small cell lung; DMS 273 small cell lung; HOP-18 NSCLC; SNB-78 CNS; XF 498 CNS; LXFL 529 NSCLC.
Experiment in all cases: growth of human tumour cells (NCI), 48 h

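Each compound was tested at five concentrations against cells in 96-well plates for 48 hours. GI50 is the concentration that inhibits growth by half. TGI: total growth inhibition.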

With `CC(/C=C/c1ccc([N+](=O)[O-])o1)=N/N1CC(CN2CCOCC2)OC1=O` (stereo not given), the TGI with 786-0 renal is greater than 100 µM; in the assay on DU-145 prostate, 60.4 µM; in the assay with KM12 colon, greater than 100 µM; in the assay with MDA-MB-231 breast it was greater than 100 µM; with MDA-MB-435 it was 42.2 µM; in the assay on SK-OV-3 ovarian it was greater than 100 µM.

`CCOc1ccc(/C=C/[N+](=O)[O-])cc1`: the GI50 in the assay on DU-145 prostate is 10.4 µM; in the assay on KM12 colon, 4.51 µM; in the assay with MDA-MB-231 breast, 7.91 µM; in the assay with MDA-MB-435, 3.18 µM; in the assay with NCI-H522 lung, 13.2 µM. The TGI with DU-145 prostate was determined as 22.2 µM; in the assay with KM12 colon, 15.4 µM; in the assay with MDA-MB-231 breast, 20.9 µM; in the assay on MDA-MB-435 it was 13.7 µM; with NCI-H522 lung it was 28 µM.

Consider `CC(C)=CC(=O)OC1C2C(C)C(=O)OC2C(O)C(C)C2C=CC(=O)C21C` (stereo not given), for which the TGI is 7.19 µM in the assay with DMS 114 small cell lung; 8.85 µM with DMS 273 small cell lung; 11.2 µM in the assay with HOP-18 NSCLC; 9.31 µM with KM12 colon; 1.57 µM in the assay with NCI-H522 lung; 15.3 µM in the assay with SK-OV-3 ovarian. The TGI in the assay on SNB-78 CNS turned out to be 9.88 µM; in the assay with XF 498 CNS, 9.77 µM.

In the case of `O=C(Nc1ccc(Cl)cc1)/C(Cc1cccc[n+]1[O-])=N\Nc1ccc([N+](=O)[O-])cc1[N+](=O)[O-]`, the TGI with 786-0 renal, in the assay on DMS 114 small cell lung, in the assay on DMS 273 small cell lung, in the assay on KM12 colon, in the assay with LXFL 529 NSCLC and in the assay on NCI-H522 lung was greater than 100 µM throughout. Besides, the TGI in the assay on SK-OV-3 ovarian and with SNB-78 CNS was greater than 100 µM each time.

With `Cc1cccc2c(N)c3cccc(C(=O)NCCN(C)C)c3nc12`, the TGI was 0.639 µM in the assay on DU-145 prostate; 0.856 µM in the assay on KM12 colon; 0.275 µM with MDA-MB-231 breast; 0.321 µM in the assay on MDA-MB-435; 0.0737 µM in the assay on NCI-H522 lung; 14.5 µM with SK-OV-3 ovarian.

Regarding `COc1ccc(/C=N/NC(=O)NCCCN(C)C)cc1`, the TGI in the assay on DMS 114 small cell lung, in the assay on DMS 273 small cell lung, in the assay with HOP-18 NSCLC, in the assay on KM12 colon, in the assay with NCI-H522 lung and with SK-OV-3 ovarian was greater than 100 µM in each case. Moreover, the TGI in the assay on SNB-78 CNS and in the assay with XF 498 CNS was greater than 100 µM each time.

With `O=C1Nc2ccccc2Nc2nc3cccccc-3c21`, the TGI in the assay with 786-0 renal, with DMS 114 small cell lung, in the assay with DMS 273 small cell lung, in the assay on KM12 colon, in the assay on LXFL 529 NSCLC and in the assay on NCI-H522 lung was greater than 100 µM each time. Besides, the TGI with SK-OV-3 ovarian, with SNB-78 CNS and in the assay on XF 498 CNS was greater than 100 µM each time.

For the molecule `CN1CCN(Cc2ccc(NC(=O)c3ccc(C#N)c(C#Cc4cnc(N)c5ncccc45)c3)cc2C(F)(F)F)CC1`, the GI50 is 2.94 µM with NCI-H522 lung and 19.3 µM in the assay with SK-OV-3 ovarian. Besides, the figures for the TGI with NCI-H522 lung and in the assay on SK-OV-3 ovarian were 28.6 µM and 44.6 µM, respectively.

With `c1ccc2c(c1)nc1n2CSC1`, the TGI in the assay with DMS 114 small cell lung, in the assay on DMS 273 small cell lung, with HOP-18 NSCLC, in the assay on LXFL 529 NSCLC, with NCI-H522 lung and with SK-OV-3 ovarian was greater than 100 µM in each case. The TGI in the assay with SNB-78 CNS and with XF 498 CNS was greater than 100 µM in each case.

In the case of `CCOP(=O)(OCC)C(Cc1ccc(OC)c(OC)c1)N=C(c1ccccc1)c1ccccc1` (stereo not given), the TGI with DU-145 prostate was greater than 100 µM; in the assay on KM12 colon it was greater than 100 µM; in the assay on MDA-MB-231 breast, greater than 100 µM; with MDA-MB-435, greater than 100 µM; with NCI-H522 lung it was 97.3 µM.

Regarding `COc1c2c(cc3c(CCc4ccccc4)cc(=O)oc13)CCC(C)(C)O2`, the TGI in the assay on DMS 114 small cell lung, with DMS 273 small cell lung, in the assay on KM12 colon, in the assay with LXFL 529 NSCLC and in the assay on SK-OV-3 ovarian was greater than 100 µM each time.

Consider `CC1(C)CCc2cc3c(-c4ccccc4)cc(=O)oc3cc2O1`, for which the TGI with DMS 114 small cell lung, in the assay on DMS 273 small cell lung, with HOP-18 NSCLC, in the assay with LXFL 529 NSCLC, with NCI-H522 lung and in the assay with SK-OV-3 ovarian was greater than 100 µM throughout. Moreover, the TGI in the assay on SNB-78 CNS and in the assay on XF 498 CNS was greater than 100 µM in each case.

Regarding `Cc1nc2ccccc2c(=O)n1CC(=O)O`, the TGI with DMS 114 small cell lung, in the assay with DMS 273 small cell lung, in the assay on HOP-18 NSCLC, with KM12 colon, with NCI-H522 lung and in the assay with SK-OV-3 ovarian was greater than 100 µM throughout. Moreover, the TGI with SNB-78 CNS and with XF 498 CNS was greater than 100 µM throughout.

Turning to `CN1C2C=C(c3ccccc3)CC1CC2` (stereo not given), the TGI in the assay with 786-0 renal, with HOP-18 NSCLC, in the assay with KM12 colon, with LXFL 529 NSCLC, in the assay on NCI-H522 lung and in the assay on SK-OV-3 ovarian was greater than 100 µM in each case. The same molecule showed a TGI with XF 498 CNS greater than 100 µM.

For `CCCCN(CCCC)CCCCNc1c(C)cnc2cc(Cl)ccc12`, the TGI is 32.1 µM in the assay with 786-0 renal; 56.9 µM in the assay with DMS 114 small cell lung; greater than 100 µM in the assay with HOP-18 NSCLC; greater than 100 µM in the assay with KM12 colon; greater than 100 µM in the assay with LXFL 529 NSCLC; 35.6 µM with NCI-H522 lung. For the same molecule, the results for the TGI in the assay on SNB-78 CNS and with XF 498 CNS were greater than 100 µM and 28.6 µM, respectively.

For the molecule `O=C(Nc1nc2ccc([N+](=O)[O-])cc2[n+]([O-])n1)C(F)(F)F`, the TGI in the assay on 786-0 renal was greater than 100 µM; with DU-145 prostate, greater than 100 µM; in the assay on KM12 colon, greater than 100 µM; with MDA-MB-231 breast, greater than 100 µM; in the assay on MDA-MB-435, 32 µM; in the assay with NCI-H522 lung, greater than 100 µM.

On to `CC(C)=CCc1c(C)cc2cc3c(c(O)c2c1O)C(O)=CC(=O)C3(CC=C(C)C)C/C=C(\C)CO` (stereo not given), for which the TGI in the assay with DMS 114 small cell lung was 82 µM; in the assay on DMS 273 small cell lung, 109 µM; with HOP-18 NSCLC, 35.3 µM; in the assay with KM12 colon it was 81.7 µM; with NCI-H522 lung, 65.2 µM; in the assay on SK-OV-3 ovarian, 71.4 µM. The same molecule showed a TGI with XF 498 CNS of 53.5 µM.

Regarding `CCOc1ccc2c(ccc(/C=C\c3cc(C)c4cccnc4c3O)[n+]2C)c1`, the TGI with 786-0 renal stood at 29.3 µM; in the assay on DU-145 prostate it was 18.6 µM; with HOP-18 NSCLC it was 7.49 µM; in the assay on KM12 colon, 22.7 µM; with LXFL 529 NSCLC, 14 µM; with MDA-MB-231 breast, 0.632 µM. The TGI came to 13.3 µM in the assay with MDA-MB-435, 5.14 µM in the assay with NCI-H522 lung and 10.4 µM in the assay with SK-OV-3 ovarian.

In the case of `Cc1ccc(S(=O)(=O)Oc2cc(S(=O)(=O)O)cc3cc(S(=O)(=O)O)cc(N)c23)cc1`, the TGI in the assay with 786-0 renal, in the assay on DU-145 prostate, with KM12 colon, in the assay with MDA-MB-231 breast, in the assay with MDA-MB-435 and with NCI-H522 lung was greater than 100 µM throughout. Further, the TGI in the assay on SK-OV-3 ovarian was greater than 100 µM.

With `COc1cc2c3c(n(CCN(C)C)c(=O)c2cc1OC)-c1cc2c(cc1C3=O)OCO2`, the TGI with 786-0 renal is greater than 100 µM; in the assay with DU-145 prostate, greater than 22.5 µM; in the assay on KM12 colon, greater than 60.2 µM; in the assay on MDA-MB-231 breast, greater than 32.1 µM; in the assay with MDA-MB-435 it was greater than 77 µM; in the assay with NCI-H522 lung it was greater than 100 µM. Besides, the TGI in the assay on SK-OV-3 ovarian is greater than 100 µM. The GI50 in the assay on DU-145 prostate is 0.218 µM; in the assay with KM12 colon it was 15.2 µM; in the assay with MDA-MB-435 it was 6.08 µM; with NCI-H522 lung, 2.51 µM; in the assay on SK-OV-3 ovarian, greater than 29 µM.

Take `Nc1ncnc2c1ncn2C1CCC(CO)O1` (stereo not given): the TGI in the assay with DMS 114 small cell lung is greater than 74.1 µM; in the assay with DMS 273 small cell lung it was greater than 100 µM; with HOP-18 NSCLC it was greater than 100 µM; with KM12 colon, greater than 100 µM; with NCI-H522 lung, greater than 100 µM; in the assay on SK-OV-3 ovarian, greater than 100 µM. Besides, the TGI in the assay on SNB-78 CNS and in the assay on XF 498 CNS was greater than 100 µM throughout.

Turning to `CCN(CC)CCCC(Nc1c2ccc(Cl)cc2nc2ccc(OC)cc12)c1ccc(F)cc1` (stereo not given), the GI50 with DU-145 prostate is 3.23 µM; with KM12 colon, 2 µM; in the assay with MDA-MB-231 breast, 1.47 µM; in the assay on MDA-MB-435, 1.73 µM; in the assay on NCI-H522 lung, 2.01 µM; in the assay on SK-OV-3 ovarian, 4.33 µM. For the same molecule, the TGI was found to be 10.4 µM with DU-145 prostate; 3.67 µM with KM12 colon; 3.08 µM with MDA-MB-231 breast; 3.2 µM with MDA-MB-435; 4.58 µM in the assay on NCI-H522 lung; 15.9 µM in the assay with SK-OV-3 ovarian.

For `C[C@]12C=CC(=O)C=C1CC[C@@H]1[C@@H]2C(=O)C[C@@]2(C)[C@H]1CC[C@]2(O)C(=O)CO`, the TGI in the assay on 786-0 renal, in the assay with DU-145 prostate, in the assay on KM12 colon, in the assay with MDA-MB-231 breast, in the assay with MDA-MB-435 and with NCI-H522 lung was greater than 100 µM each time. Further, the TGI in the assay with SK-OV-3 ovarian is greater than 100 µM.

On to `[C-]#[O+].[Cl][Sn]([Cl])[Cl].[Cl][Sn]([Cl])[Cl].[Pt].c1ccncc1`, for which the TGI with DMS 273 small cell lung is greater than 100 µM; with KM12 colon, greater than 100 µM; with NCI-H522 lung it was greater than 65.3 µM; with SK-OV-3 ovarian, greater than 100 µM.
